Values joined by “and” are separate entries in the source; they are usually repeats but may differ in a detail not shown here. Equal entries are not always repeated.
Key:
Microsomal CLint, human = format: in vitro ADME; settings: human microsomes
Method: (§1) Metabolic stability was performed at Cyprotex (UK). Pooled liver microsomes / cryopreserved pooled hepatocytes were purchased from a commercial supplier (BD Biosciences or Corning/InVitro Technologies).
(§2) The final incubation volume was 500 μL. A minus cofactor control incubation was included for each compound tested where 0.05 M phosphate buffer pH 7.4 was added instead of NADPH (minus NADPH). Each compound was incubated for 0, 5, 15, 30, and 45 min. The control (minus NADPH) was incubated for 45 min only.
(§3) All incubations were terminated by transferring 50 μL of incubate to 100 μL of acetonitrile containing internal standard at the appropriate time points. The termination plates were centrifuged at 2500 rpm for 20–30min at 4 °C to precipitate the protein. Following protein precipitation, samples were analysed using quantitative LC-MS/MS. A plot of ln peak area ratio (compound peak area/internal standard peak area) against time, yielded the gradient of the line.
(§4) Calculated intrinsic clearance values of control compounds were compared with the Cyprotex data library to confirm the appropriate activity of the microsomal/hepatocyte batch and data acceptance.

RIPK2 [1] = biological target: T1, RIPK2 (Homo sapiens, UniProt O43353); test: RIPK2 fluorescence polarisation binding assay
T1 sequence (O43353 whole entry): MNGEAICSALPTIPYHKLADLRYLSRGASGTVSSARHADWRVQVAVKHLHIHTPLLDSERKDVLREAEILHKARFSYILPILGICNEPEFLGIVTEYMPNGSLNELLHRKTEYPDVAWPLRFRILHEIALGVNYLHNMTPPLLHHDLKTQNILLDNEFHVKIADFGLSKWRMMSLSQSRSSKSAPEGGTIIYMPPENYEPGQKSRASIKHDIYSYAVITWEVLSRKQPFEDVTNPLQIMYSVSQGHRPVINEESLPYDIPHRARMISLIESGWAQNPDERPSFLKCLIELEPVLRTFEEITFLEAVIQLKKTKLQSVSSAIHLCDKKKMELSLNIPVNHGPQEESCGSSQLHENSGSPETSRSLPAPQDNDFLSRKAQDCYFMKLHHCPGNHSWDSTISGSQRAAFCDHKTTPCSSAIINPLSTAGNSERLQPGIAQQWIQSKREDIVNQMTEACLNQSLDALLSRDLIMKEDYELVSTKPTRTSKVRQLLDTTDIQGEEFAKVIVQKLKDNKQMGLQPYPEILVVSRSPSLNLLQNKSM

[2] = High-throughput precipitation solubility, chemiluminescent nitrogen-specific detection (CLND); format: physicochemical; settings: high-throughput precipitation assay
RIPK2 [3] = biological target: T1, RIPK2; test: RIPK2 degradation in THP-1 cells, capillary-based immunoassay, 18 h; format: cell-based; parameters: endogenous in cells; host or cells: THP-1 (ATCC TIB-202); settings: for RIPK2 level relative to DMSO control, mean / RIPK2 level relative to DMSO control, replicate: THP-1, 18 h
Method: The compounds were incubated with THP-1 cells for 18 h after which RIPK2 levels were determined using a capillary-based immunoassay (n = 3). All three PROTACs potently degraded RIPK2 in a concentration dependent manner (Fig. 1). […]. This discrepancy between the in vitro RIPK2 degradation and binding potency provides possible evidence for a catalytic mechanism of action of this compound.
(§5) Before treatment with compound or vehicle, THP1 cells, human and rat PBMCs were counted using Vi-Cell cell counter (Invitrogen) and adjusted to a final cell density of […] using complete growth medium. Cells or whole blood were treated with vehicle (0.1% DMSO) or fixed concentrations of compound up to 1 μM in half log unit increments and incubated for the time period indicated in the figure.
Simple Western immunoassay: Cell lysates were mixed with 5× concentrated master mix (Protein Simple) and denatured at 95 °C on a heat block for 5 min together with the provided ladder (Protein Simple). Antibodies were diluted in the provided buffer as following: anti-RIPK2 (1:10 or 1:50), anti-cIAP1(1:10), anti-cIAP2 (1:10), anti-XIAP (1:10), mouse anti-β-actin (Abcam - 1:1000), rabbit anti-β-actin (Abcam - 1:50) and anti-vinculin (1:100). All reagents (blocking buffer, primary and secondary antibodies, streptavadin, luminol/peroxide, separation matrix, stacking matrix and water) were added to the Protein Simple plate containing the ladder and lysates and the plate was placed in a Protein Simple Western instrument and the Simple Western default size assay protocol was used. All samples were analyzed using the associated Compass software 3.1.7. The area under the peak values obtained for RIPK2, cIAP1, cIAP2 or XIAP were normalized relative to the control protein values.
In vitro experimental data were analyzed using a 4-parameter logistic equation in GraphPad Prism 5.0.4. to generate an estimate of the half-maximal concentration and maximal degradation, DC50 and Dmax value respectively, for concentration-degradation relationships. Cytokine levels were analyzed in a similar manner to yield IC50 and Imax values. […] Where analysis to a sigmoidal relationship was not possible, the data points are shown as mean ± s.e.m.

MDP-induced TNFα release = MDP-induced TNFα release in human whole blood; format: cell-based; settings: inhibition of MDP-induced TNFα release
Method: as §5
Where the assessment of cytokines was performed, L18-MDP was added to the cell culture media (1 μg/ml) or to the rat blood samples (100 ng/ml) and samples were incubated for up to 4 h. […]
Cytokine measurement assay: Cytokine levels were measured in rat plasma or rat PBMCs cell culture supernatants using rat V-Plex TNFα, in human plasma or human PBMCs cell culture supernatants with either TNFα tissue culture or 7-plex kit. Rat serum and tissues samples from the in vivo L18-MDP acute inflammation model were analyzed using the rat TNFα, Il-6 and IL-8 U-Plex kits. […] Levels of cytokines spontaneously released from human colon biopsies cell culture supernatants were measured using Human IL-1 beta/IL-1F2 DuoSet ELISA (Bio-techne), Human IL-6 ELISA (Immunotools) and Human TNF-alpha DuoSet ELISA (Bio-techne). […] The MSD plates were analyzed using the MSD sector imager 6000 plate reader and cytokines concentration (pg/ml) was obtained by using the MSD DISCOVERY WORKBENCH software version 4.0.12.1 […]

[4] = ChromLogD7.4 high-throughput chromatographic lipophilicity; format: physicochemical
Microsomal CLint, rat = format: in vitro ADME; settings: rat microsomes
Method: as §1, §2, §3, §4

With CN[C@@H](C)C(=O)N[C@H](C(=O)N1Cc2cc(OCCOCCOCCOCCOc3cc4nccc(Nc5ccc6scnc6c5)c4cc3S(=O)(=O)C(C)(C)C)ccc2C[C@H]1C(=O)N[C@@H]1CCCc2ccccc21)C(C)(C)C [PROTAC 2] the microsomal turnover (Microsomal CLint, human) was 29 mL/min/g liver, the IC50 (RIPK2 [1]) was 10 nM and the “CLND solubility, in words” value [2] was “poor solubility”. The “RIPK2 level relative to DMSO control, mean” value (RIPK2 [3]; concentration 5.64503e-11 (uM)) was 117.46%, the “RIPK2 level relative to DMSO control, replicate” value (RIPK2 [3]; concentration 5.64503e-11 (uM)) was 117.27% and 131.32% and 103.77% and the “RIPK2 level relative to DMSO control, mean” value (RIPK2 [3]; concentration 1.69351e-10 (uM)) was 97.22%. The “RIPK2 level relative to DMSO control, replicate” value (RIPK2 [3]; concentration 1.69351e-10 (uM)) was 71.86% and 108.98% and 110.82%, the “RIPK2 level relative to DMSO control, mean” value (RIPK2 [3]; concentration 5.08053e-10 (uM)) was 57.20% and the “RIPK2 level relative to DMSO control, replicate” value (RIPK2 [3]; concentration 5.08053e-10 (uM)) was 41.71% and 72.70% and 57.18%. The “RIPK2 level relative to DMSO control, mean” value (RIPK2 [3]; concentration 1.52416e-9 (uM)) was 26.83%, the “RIPK2 level relative to DMSO control, replicate” value (RIPK2 [3]; concentration 1.52416e-9 (uM)) was 18.29% and 36.88% and 25.33% and the “RIPK2 level relative to DMSO control, mean” value (RIPK2 [3]; concentration 4.57247e-9 (uM)) was 15.28%. The “RIPK2 level relative to DMSO control, replicate” value (RIPK2 [3]; concentration 4.57247e-9 (uM)) was 12.82% and 16.44% and 16.58%, the “RIPK2 level relative to DMSO control, mean” value (RIPK2 [3]; concentration 1.37174e-8 (uM)) was 8.47% and the “RIPK2 level relative to DMSO control, replicate” value (RIPK2 [3]; concentration 1.37174e-8 (uM)) was 4.51% and 15.08% and 5.82%. For the same compound, the “RIPK2 level relative to DMSO control, mean” value (RIPK2 [3]; concentration 4.11523e-8 (uM)) was 4.73%, the “RIPK2 level relative to DMSO control, replicate” value (RIPK2 [3]; concentration 4.11523e-8 (uM)) was 6.91% and 6.83% and 0.44% and the “RIPK2 level relative to DMSO control, mean” value (RIPK2 [3]; concentration 1.23457e-7 (uM)) was 7.39%. The “RIPK2 level relative to DMSO control, replicate” value (RIPK2 [3]; concentration 1.23457e-7 (uM)) was 4.63% and 11.01% and 6.53%, the “RIPK2 level relative to DMSO control, mean” value (RIPK2 [3]; concentration 3.7037e-7 (uM)) was 9.35% and the “RIPK2 level relative to DMSO control, replicate” value (RIPK2 [3]; concentration 3.7037e-7 (uM)) was 5.28% and 16.09% and 6.68%. For the same compound, the “RIPK2 level relative to DMSO control, mean” value (RIPK2 [3]; concentration 1.11111e-6 (uM)) was 11.12%, the “RIPK2 level relative to DMSO control, replicate” value (RIPK2 [3]; concentration 1.11111e-6 (uM)) was 12.33% and 13.80% and 7.23% and the “RIPK2 level relative to DMSO control, mean” value (RIPK2 [3]; concentration 3.33333e-6 (uM)) was 14.86%. The “RIPK2 level relative to DMSO control, replicate” value (RIPK2 [3]; concentration 3.33333e-6 (uM)) was 10.80% and 18.84% and 14.95%, the “RIPK2 level relative to DMSO control, mean” value (RIPK2 [3]; concentration 1e-5 (uM)) was 10.81% and the “RIPK2 level relative to DMSO control, replicate” value (RIPK2 [3]; concentration 1e-5 (uM)) was 10.44% and 15.52% and 6.46%. For the same compound, the “pDC50 (log half-maximal degradation concentration) of RIPK2” value (RIPK2 [3]; THP-1 cells, 18 h, n = 3) was 9.4 ± 0.1, the “hWB MDP pIC50 ± SEM (n)” value (MDP-induced TNFα release) was 7.95 ± 0 and the ChromLogD7.4 [4] was 6.1. It also gave a microsomal turnover (Microsomal CLint, rat) of 11 mL/min/g liver.

From PMC7083851, “Extended pharmacodynamic responses observed upon PROTAC-mediated degradation of RIPK2” (Communications Biology, 2020)
